Experimental data published in US4826968A, “S-alkylated coenzyme A with effect on polyamine acetylase” (Research Corporation, priority 1985, dated 1989).
Blank lines part the entries; values can stand above or below the compound they belong to.

Columns and labels:
[1] = molecular target: T1, spermidine/spermine N^1 -acetyltransferase (Rattus norvegicus, UniProt Q6P9U6); experiment: Cytosolic spermidine acetyltransferase assay ([14C]acetyl Coenzyme A, cellulose phosphate paper); format: biochemical; settings: for relative effectiveness in inhibiting the acetylation of spermidine and spermine: inhibitors compared with one another; for inhibitory activity towards spermidine/spermine N^1 -acetyltransferase / potency relative to the sym-norspermidine derivative: FIG. 2
T1 construct: Cytosolic spermidine acetyltransferase activity was extracted from the livers of male Sprague-Dawley rats; from tissue; host or cells: liver of male Sprague-Dawley rats, 6 h after intraperitoneal carbon tetrachloride; cytosolic extract
T1 sequence (Q6P9U6 1-171): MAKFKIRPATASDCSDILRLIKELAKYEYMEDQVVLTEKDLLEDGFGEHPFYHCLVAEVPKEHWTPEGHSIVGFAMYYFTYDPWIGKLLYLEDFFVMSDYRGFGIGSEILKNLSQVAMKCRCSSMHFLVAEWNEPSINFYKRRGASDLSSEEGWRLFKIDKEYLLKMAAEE
Procedure: Spermidine acetyltransferase activity was assayed in a volume of 100 μl containing 100 μg of extract protein, 300 nmol spermidine, 0.8 nmol (40 nCi) [1^14 C] acetyl Coenzyme A and 10 μmol tris-HCl (pH 7.8). The reaction was allowed to proceed at 30° C. for 10 min and was terminated by the addition of 20 μl of 1M NH2 OH.HCl. Protein was precipitated by boiling the samples for 3 min and was removed by centrifugation. 50 μl of the supernatant was applied to a 2.2 cm diameter disc of cellulose phosphate paper and was allowed to dry. The discs were washed in a beaker five times with water and three times with ethanol.
Non-enzymatic blank values for both histone and spermidine acetylation assays were routinely obtained by incubations of all the reactants excluding enzyme in the appropriate buffer.

histone acetylation = settings: mammalian cells; cited from earlier work
Pneumocystis carinii = experiment: Treatment of Pneumocystis carinii pneumonia; format: in vivo; settings: opportunistic infection in the setting of AIDS
embryogenesis = experiment: Fertility, implantation and embryonic development in treated mice; format: in vivo
tumor growth = experiment: Experimental tumor models, tumor growth; format: in vivo; settings: several experimental tumor models
rat hematoma cells = experiment: DNA replication and proliferation of rat hematoma cells in culture; format: cell-based
ventral prostate gland = experiment: Prostate gland secretion, growth and regrowth in rats; format: in vivo
[2] = test system: human prostate gland adenoma cells; experiment: DNA replication and proliferation of human prostate gland adenoma cells in culture; format: cell-based
[3] = molecular target: T1, spermidine/spermine N^1 -acetyltransferase; experiment: Cytosolic spermidine acetyltransferase assay ([14C]acetyl Coenzyme A, cellulose phosphate paper); format: biochemical; settings: highly purified spermidine/spermine N^1 -acetyltransferase; FIG. 1
[4] = test system: exoerythrocyctic infection (malaria); experiment: Animal studies of malaria; format: in vivo
murine tumors = experiment: Murine tumors, alone and in combination with three cytotoxic agents; format: in vivo
[5] = test system: Trypanosoma brucei brucei; experiment: Replication of and infection by Trypanosoma brucei brucei; settings: in vivo
[6] = female mice treated prior to copulation and up to 18 days after fecundation

Compound: NCCCN [1,3-diaminopropane]
relative effectiveness in inhibiting the acetylation of spermidine and spermine [1]: marginal superiority to putrescine

Compound: CC(C)(COP(=O)(O)OP(=O)(O)OC[C@H]1O[C@@H](n2cnc3c(N)ncnc32)[C@H](O)[C@@H]1OP(=O)(O)O)[C@@H](O)C(=O)NCCC(=O)NCCSCC(=O)NCCCNCCCCN [N-[2-(S-Coenzyme A)acetyl] spermidine amide]
histone acetylation (histone acetylation): inhibit histone acetylation

Compound: NCCCCN [putrescine]
relative effectiveness in inhibiting the acetylation of spermidine and spermine [1]: least effective

Compound: NCCCCNCCCCN [sym-homospermidine]
relative effectiveness in inhibiting the acetylation of spermidine and spermine [1]: an order more effectiveness than the other two compounds

More lines, main results first:

inhibitory activity towards spermidine/spermine N^1 -acetyltransferase [1]: strong inhibitors
Compound: CC(C)(COP(=O)(O)OP(=O)(O)OC[C@H]1O[C@@H](n2cnc3c(N)ncnc32)[C@H](O)[C@@H]1OP(=O)(O)O)[C@@H](O)C(=O)NCCC(=O)NCCSCC(=O)NCCCNCCCCN [I, N-[2-(S-Coenzyme A)acetyl] spermidine amide]
potency relative to the sym-norspermidine derivative [1]: more than an order of magnitude less potent

inhibitory activity towards spermidine/spermine N^1 -acetyltransferase [1]: strong inhibitors
Compound: CC(C)(COP(=O)(O)OP(=O)(O)OC[C@H]1O[C@@H](n2cnc3c(N)ncnc32)[C@H](O)[C@@H]1OP(=O)(O)O)[C@@H](O)C(=O)NCCC(=O)NCCSCC(=O)NCCCCNCCCN [II, N-[2-(S-Coenzyme A)acetyl] spermidine amide]
potency relative to the sym-norspermidine derivative [1]: more than an order of magnitude less potent

inhibition of the acetylation of spermidine ([1]; crude cytosolic extracts from livers of carbon tetrachloride treated rats, FIG. 1): very potent inhibitor | inhibition of the acetylation of spermidine [3]: very potent inhibitor
Compound: CC(C)(COP(=O)(O)OP(=O)(O)OC[C@H]1O[C@@H](n2cnc3c(N)ncnc32)[C@H](O)[C@@H]1OP(=O)(O)O)[C@@H](O)C(=O)NCCC(=O)NCCSCC(=O)NCCCNCCCN [N-[2-(S-Coenzyme A)acetyl] sym-norspermidine amide]
efficacy in Pneumocystis carinii pneumonia (Pneumocystis carinii): effective in treatment | implantation (embryogenesis; [6]): no effect | subsequent embryonic development (embryogenesis; [6]): totally inhibited | fertility (embryogenesis; male and female mice treated prior to mating with untreated animals): no effect on fertility | dependence of the inhibition on substrate concentration ([1]; no full kinetic analysis): greater when the assays were carried out at lower concentrations with either substrate | tumor growth (tumor growth): Marked retardation or arrest of tumor growth | DNA replication (rat hematoma cells): inhibits DNA replication | cell proliferation (rat hematoma cells): retards proliferation | androgen-induced prostatic regrowth (ventral prostate gland; castrated rats): marked slowing | prostate gland secretion (ventral prostate gland; rats): effectively inhibited | growth of the ventral prostate gland (ventral prostate gland; rats, versus control group): significantly less than in the control group | DNA replication [2]: inhibits DNA replication | cell proliferation [2]: retards proliferation | efficacy against exoerythrocyctic infection [4]: effective therapeutic agent | antitumor effect alone versus each cytotoxic drug (murine tumors; alone): superior to those of each cytotoxic drug | antitumor effect of combination with cytotoxic agents (murine tumors; combination with any of three cytotoxic agents): synegistic | T.b. brucei infection [5]: completely eliminating the infection | replication of Trypanosoma brucei brucei [5]: inhibits the replication

potency relative to the sym-norspermidine derivative [1]: much less active
Compound: CC(C)(COP(=O)(O)OP(=O)(O)OC[C@H]1O[C@@H](n2cnc3c(N)ncnc32)[C@H](O)[C@@H]1OP(=O)(O)O)[C@@H](O)C(=O)NCCC(=O)NCCSCC(=O)NCCCN [amide derived from 1,3-diaminopropane]
inhibition relative to coenzyme A ([1]; FIG. 2C): marginally more inhibitory than coenzyme A

potency relative to the sym-norspermidine derivative [1]: much less active
Compound: CC(C)(COP(=O)(O)OP(=O)(O)OC[C@H]1O[C@@H](n2cnc3c(N)ncnc32)[C@H](O)[C@@H]1OP(=O)(O)O)[C@@H](O)C(=O)NCCC(=O)NCCSCC(=O)NCCCCN [amide derived from putrescine]

potency relative to the sym-norspermidine derivative [1]: ten times less active
Compound: CC(C)(COP(=O)(O)OP(=O)(O)OC[C@H]1O[C@@H](n2cnc3c(N)ncnc32)[C@H](O)[C@@H]1OP(=O)(O)O)[C@@H](O)C(=O)NCCC(=O)NCCSCC(=O)NCCCCNCCCCN [sym-homospermidine derivative]
